Laboratory results reported in ChEMBL document CHEMBL1130498, “Synthesis of conformationally constrained analogues of BRL-32872. Determination of stereochemistry and related pharmacological properties” (Bioorg Med Chem Lett, 1997).
Where “and” joins values, the source holds several entries; their conditions need not be identical. Equal values may be shown once.

Experiment: Hill coefficient was evaluated

| Compound | Hill coefficient |
| --- | --- |
| COc1ccc(CCN2C3CC[C@@H]2[C@H](N(C(=O)c2ccc([N+](=O)[O-])cc2)c2ccc(OC)c(OC)c2)C3)cc1OC | 1.37 and 0.93 |
| COc1ccc(CCN2C3CC[C@@H]2[C@@H](N(C(=O)c2ccc([N+](=O)[O-])cc2)c2ccc(OC)c(OC)c2)C3)cc1OC | 1.01 and 1.18 |
